Source: the NIST ThermoML archive (doi:10.1016/j.tca.2011.12.010)
“And” between values parts separate entries of the source, which are not always exact repeats. Equal entries are not always repeated.

Assay: molar heat capacity at constant pressure
Conditions: 101.33 kPa, Small sample (50 mg) DSC

O=[N+]([O-])[O-].O=[N+]([O-])[O-].O=[N+]([O-])[O-].O=[N+]([O-])[O-].[K+].[K+].[Mg+2] [bis-potassium magnesium nitrate]
Conditions	molar heat capacity at constant pressure
298.15 K, Crystal 2	308 J/K/mol
299 K, Crystal 2	308.7 J/K/mol
300 K, Crystal 2	309.8 J/K/mol
301 K, Crystal 2	310.5 J/K/mol
302 K, Crystal 2	310.8 J/K/mol
303 K, Crystal 2	311.5 J/K/mol
304 K, Crystal 2	312.2 J/K/mol
305 K, Crystal 2	312.9 J/K/mol
306 K, Crystal 2	314 J/K/mol
307 K, Crystal 2	314.7 J/K/mol
308 K, Crystal 2	315.7 J/K/mol
309 K, Crystal 2	316.4 J/K/mol
310 K, Crystal 2	317.5 J/K/mol
311 K, Crystal 2	318.5 J/K/mol
312 K, Crystal 2	319.2 J/K/mol
313 K, Crystal 2	319.9 J/K/mol
314 K, Crystal 2	322 J/K/mol
315 K, Crystal 2	322 J/K/mol
316 K, Crystal 2	322.7 J/K/mol
317 K, Crystal 2	323.8 J/K/mol
318 K, Crystal 2	324.8 J/K/mol
319 K, Crystal 2	325.9 J/K/mol
320 K, Crystal 2	326.9 J/K/mol
321 K, Crystal 2	328 J/K/mol
325 K, Crystal 2	329 J/K/mol
326 K, Crystal 2	328 J/K/mol
327 K, Crystal 2	329.7 J/K/mol
328 K, Crystal 2	330.4 J/K/mol
329 K, Crystal 2	331.1 J/K/mol
330 K, Crystal 2	331.1 J/K/mol
331 K, Crystal 2	331.8 J/K/mol
332 K, Crystal 2	332.9 J/K/mol
333 K, Crystal 2	334.3 J/K/mol
334 K, Crystal 2	334.3 J/K/mol
335 K, Crystal 2	334.6 J/K/mol
336 K, Crystal 2	335.3 J/K/mol
337 K, Crystal 2	335.7 J/K/mol
338 K, Crystal 2	336.4 J/K/mol
339 K, Crystal 2	336.7 J/K/mol
340 K, Crystal 2	337.1 J/K/mol
341 K, Crystal 2	338.1 J/K/mol
342 K, Crystal 2	338.5 J/K/mol
343 K, Crystal 2	338.8 J/K/mol
344 K, Crystal 2	339.9 J/K/mol
345 K, Crystal 2	341.3 J/K/mol
346 K, Crystal 2	342 J/K/mol
347 K, Crystal 2	341.6 J/K/mol
348 K, Crystal 2	340.6 J/K/mol
349 K, Crystal 2	340.6 J/K/mol
350 K, Crystal 2	340.9 J/K/mol
351 K, Crystal 2	341.3 J/K/mol
352 K, Crystal 2	342 J/K/mol
353 K, Crystal 2	342.7 J/K/mol
354 K, Crystal 2	343.4 J/K/mol
355 K, Crystal 2	344.1 J/K/mol
356 K, Crystal 2	344.8 J/K/mol
357 K, Crystal 2	345.5 J/K/mol
358 K, Crystal 2	346.2 J/K/mol
359 K, Crystal 2	346.9 J/K/mol
360 K, Crystal 2	347.6 J/K/mol
361 K, Crystal 2	348.3 J/K/mol
362 K, Crystal 2	349.3 J/K/mol
363 K, Crystal 2	350.4 J/K/mol
364 K, Crystal 2	351.4 J/K/mol
365 K, Crystal 2	352.5 J/K/mol
366 K, Crystal 2	353.5 J/K/mol
367 K, Crystal 2	354.6 J/K/mol
368 K, Crystal 2	355.3 J/K/mol
369 K, Crystal 2	356 J/K/mol
370 K, Crystal 2	356.7 J/K/mol
371 K, Crystal 2	357.7 J/K/mol
372 K, Crystal 2	357.8 J/K/mol
373 K, Crystal 2	358.6 J/K/mol
374 K, Crystal 2	360.4 J/K/mol
375 K, Crystal 2	362.7 J/K/mol
376 K, Crystal 2	367.5 J/K/mol
377 K, Crystal 2	372.4 J/K/mol
378 K, Crystal 2	374.9 J/K/mol
379 K, Crystal 2	375.6 J/K/mol
380 K, Crystal 2	375.8 J/K/mol
381 K, Crystal 2	376 J/K/mol
382 K, Crystal 2	376.3 J/K/mol
383 K, Crystal 2	377.7 J/K/mol
384 K, Crystal 2	379.1 J/K/mol
385 K, Crystal 2	380.8 J/K/mol
386 K, Crystal 2	381.9 J/K/mol
387 K, Crystal 2	382.2 J/K/mol
388 K, Crystal 2	382.6 J/K/mol
389 K, Crystal 2	385 J/K/mol
390 K, Crystal 2	386.8 J/K/mol
391 K, Crystal 2	388.2 J/K/mol
392 K, Crystal 2	389.6 J/K/mol
393 K, Crystal 2	391.3 J/K/mol
394 K, Crystal 2	393.8 J/K/mol
395 K, Crystal 2	395.2 J/K/mol
396 K, Crystal 2	397.6 J/K/mol
397 K, Crystal 2	399.7 J/K/mol
398 K, Crystal 2	401.5 J/K/mol
399 K, Crystal 2	403.2 J/K/mol
400 K, Crystal 2	405.3 J/K/mol
401 K, Crystal 2	409.5 J/K/mol
402 K, Crystal 2	412.7 J/K/mol
403 K, Crystal 2	422.1 J/K/mol and 428.4 J/K/mol
403.15 K, Crystal 2	428.4 J/K/mol
404 K, Crystal 2	811 J/K/mol
405 K, Crystal 1	1042.3 J/K/mol
406 K, Crystal 1	900.2 J/K/mol
407 K, Crystal 1	714.4 J/K/mol
408 K, Crystal 1	611.1 J/K/mol
409 K, Crystal 1	562.5 J/K/mol
410 K, Crystal 1	518 J/K/mol
411 K, Crystal 1	464.1 J/K/mol
412 K, Crystal 1	426.3 J/K/mol
413 K, Crystal 1	409.2 J/K/mol
414 K, Crystal 1	403.6 J/K/mol
415 K, Crystal 1	402.9 J/K/mol
415.15 K, Crystal 1	402.9 J/K/mol
416 K, Crystal 1	403.2 J/K/mol
417 K, Crystal 1	403.6 J/K/mol
418 K, Crystal 1	404.3 J/K/mol
419 K, Crystal 1	405.3 J/K/mol
420 K, Crystal 1	406.4 J/K/mol
421 K, Crystal 1	409.2 J/K/mol
422 K, Crystal 1	408.5 J/K/mol
423 K, Crystal 1	407.8 J/K/mol
424 K, Crystal 1	407.3 J/K/mol
425 K, Crystal 1	408.5 J/K/mol
426 K, Crystal 1	406.3 J/K/mol
427 K, Crystal 1	405.9 J/K/mol
428 K, Crystal 1	404.1 J/K/mol
429 K, Crystal 1	403.2 J/K/mol
430 K, Crystal 1	405 J/K/mol and 410 J/K/mol
431 K, Crystal 1	407.1 J/K/mol
432 K, Crystal 1	409.5 J/K/mol
433 K, Crystal 1	412.7 J/K/mol
434 K, Crystal 1	415.1 J/K/mol
435 K, Crystal 1	417.2 J/K/mol
436 K, Crystal 1	419 J/K/mol
437 K, Crystal 1	417.6 J/K/mol
438 K, Crystal 1	420 J/K/mol
439 K, Crystal 1	421.4 J/K/mol
440 K, Crystal 1	425.3 J/K/mol
441 K, Crystal 1	427.7 J/K/mol
442 K, Crystal 1	429.8 J/K/mol
443 K, Crystal 1	431.6 J/K/mol
444 K, Crystal 1	434 J/K/mol
445 K, Crystal 1	436.5 J/K/mol
446 K, Crystal 1	438.9 J/K/mol
447 K, Crystal 1	441.4 J/K/mol
448 K, Crystal 1	444.5 J/K/mol
449 K, Crystal 1	449.1 J/K/mol
450 K, Crystal 1	451.5 J/K/mol
451 K, Crystal 1	454.3 J/K/mol
452 K, Crystal 1	458.9 J/K/mol
453 K, Crystal 1	463.4 J/K/mol
454 K, Crystal 1	469 J/K/mol
455 K, Crystal 1	476 J/K/mol
456 K, Crystal 1	484.1 J/K/mol
457 K, Crystal 1	494.9 J/K/mol
458 K, Crystal 1	508.9 J/K/mol and 511.7 J/K/mol
458.15 K, Crystal 1	511.7 J/K/mol
459 K, Crystal 1	532.4 J/K/mol
460 K, Crystal 1	561.4 J/K/mol
